How the values were obtained:
[1] = system: cultured smooth muscle cells; assay: Co-mitogenic effect of MCP-1 with 0.5% fetal calf serum; assay type: cell-based; conditions: 100 μM peptide
Experimental: Many chemokines are co-mitogenic with low concentrations of FCS, e.g., 50 ng/ml MCP-1+0.5% FCS is a mitogen for smooth muscle cells. Assays well known to the art for determination of DNA synthesis induced by any known chemokine plus a low concentration (<5%) of FCS on suitable cells (e.g., smooth muscle cells) in the presence and absence of the agent may be employed to screen agents for such inhibitory activity. See Porreca et al., J. Vasc. Res., 34, 58 (1997), the disclosure of which is incorporated by reference herein.
Peptide 3(1-12)[MCP-1] […] MCP-1 has been reported to be a weak co-mitogen with 0.5% fetal calf serum for cultured smooth muscle cells. […] (SEQ ID NO:1) is an MCP-1 receptor antagonist. The observation that peptide 3(1-12) [MCP-1]

[2] = system: TGFβ1 induced THP-1 migration; assay: Trans-well THP-1 migration assay, TGFβ1 as non-chemokine control chemoattractant; assay type: cell-based, human
Experimental: Any method suitable for counting cells can be used, for example, counting with a hemocytometer, incubation of the cells with MTT (see above), or FACS analysis. A negative control assay is also performed, using TGF-β or another non-chemokine chemoattractant (e.g., IL1β or TNFα). To assess whether the agent is cytotoxic, the same concentrations of agent are incubated with THP-1 cells. Agents which 1) are not cytotoxic at levels which inhibit migration, 2) are ineffective at inhibiting the negative control-induced migration, and 3) reduce or inhibit chemokine-induced THP-1 migration, are agents which fall within the scope of the invention.
For this assay, THP-1 cells were maintained at a density of 4×10^5 cells per ml in RPMI-1640 supplemented with 10% fetal calf serum+20 μM 2-mercaptoethanol. Chemotaxis was induced in a 96-well disposable chemotaxis chamber fitted with a […] polycarbonate filter (PVP free, ChemoTX, Neuroprobe Inc., Cabin John). Twenty-nine μl of chemoattractant (recombinant human chemokine; 50 ng/ml, i.e., 5.9 nM) or control (100 ng/ml TGFβ) was added to the lower compartment of each well. The framed filter was aligned with the holes in the corner of the filter frame and placed over the wells. Five×10^4 THP-1 cells in 25 μl of RPMI-1640 culture media were added to the upper compartment. Peptides were dissolved in Milli Q water and then serially diluted in culture medium. […]
After incubation, the cells were gently removed from the top of the filter with a pipette, 20 μl of 20 mM EDTA in PBS was added into each top well, and the mixture was incubated for 20 minutes at 4° C. […] A standard curve was prepared to accurately quantify the number of THP-1 cells that had migrated. […] Absorbance of converted dye was measured at a wavelength of 595 nm using an ELISA plate reader. The number of cells that had migrated in each well was determined by interpolation of the standard curve.
To investigate the receptor specificity of peptide 3 inhibition, the ED50 was determined for peptide 3(1-12)[MCP-1] […]

For EICADPKQKWVQ [Peptide 3], which “effect on the co-mitogenic effect of MCP-1 for cultured smooth muscle cells” value [1] is on record?
Its value is “completely abolished”.

And the “Extent of inhibition of THP-1 migration at 100 μM, TGFβ1” value ([2]; Table 4(b), 100 μM peptide, n.s. = no statistically significant inhibition)?
Its value is “n.s”.

And the “inhibition of TGF-beta induced THP-1 migration” value ([2]; even at 100 μM)?
The value was “did not significantly inhibit”.

Source: patent US6989435B2, “Compounds and methods to inhibit or augment an inflammatory response” (Cambridge University Technical Services Ltd., priority 1997, dated 2006)
